Test results reported in US20110015410A1, “NOVEL USE OF SCOPARONE” (Kyungpook National University Industry Academic Cooperation …, priority 2007, published 2011).
One block for each compound: values may come before it.

Columns and labels:
[1] = tested on: vascular smooth muscle cells; assay: Proliferation of vascular smooth muscle cells on treatment with the AMPK inhibitor CompC; type: cell-based, Sprague-Dawley white rats; conditions: cells treated with CompC, described as an AMPK inhibitor
[2] = tested on: AP-1; assay: DNA-binding activity of AP-1 (electrophoretic mobility shift assay); type: cell-based, Sprague-Dawley white rats; conditions: 10 ng TNF-α; scoparone 0, 10, 20, 50 and 100 μM; 24 hours; EMSA
Procedure: (§1) Proteins such as cell cycle regulatory proteins or chemokine are regulated by the respective transcription factors. Accordingly, the DNA-binding activities of AP-1 that is a transcription factor regulating the expression of cell cycle regulatory proteins, and NF-κB that is a transcription factor regulating the expression of chemokine were analyzed using an electrophoretic mobility shift assay (EMSA).
(§2) Vascular smooth muscle cells were cultured in 0.5% FBS-containing medium for 24 hours. The cultured cells were divided into a control group treated with neither scoparone nor tumor necrosis factor (TNF-α, and five test groups which were treated with media containing 10 ng of tumor necrosis factor (TNF-α) for 24 hours at scoparone concentrations of 0 μM, 10 μM, 20 μM, 50 μM and 100 μM, respectively. Nuclear extracts were isolated from the vascular smooth muscle cells and labeled with radioisotope-labeled probes for AP-1 and NF-κB. Then, the labeled extracts were subjected to a protein-DNA reaction at room temperature for 20 minutes. After completion of the reaction, each sample was loaded on a 4% native polyarylamide gel and electrophoresed at 150 volt for 2 hours, followed by analysis.

[3] = tested on: p53; assay: Expression of p53 in vascular smooth muscle cells (Western blot); type: cell-based, Sprague-Dawley white rats
Procedure: (§3) Cultured vascular muscle cells were plated in a 60-mm tissue culture dish at a confluence of about 80-90%, and then cultured in 0.5% FBS containing medium for 24 hours to allow the cells to enter the stationary phase. The cultured cells were divided into a control group not treated with scoparone, and five test groups which were treated with 50 μg of scoparone for 2 hr, 4 hr, 6 hr, 12 hr and 24 hr, respectively. From each of the groups, the total protein was isolated using RIPA buffer. Each of the isolated total proteins was boiled in buffer for 5 minutes, and then cooled on ice. Then, each total protein was separated according to size by electrophoresis on sodium dodecyl sulfate polyacrylamide gel. Then, each total protein was transferred to a PVDF membrane which was then allowed to react with antibodies for p53, p27, p21 and Cyclin D to examine the expression of the proteins.

[4] = tested on: VCAM-1; assay: Expression of VCAM-1 in vascular smooth muscle cells (Western blot); type: cell-based, Sprague-Dawley white rats; conditions: TNF-α-containing media; scoparone 0, 10, 20, 50 and 100 μM; 24 hours
Procedure: Cultured vascular smooth muscle cells were plated in a 60-mm tissue culture dish at a confluence of about 80-90%, and then cultured in 0.5% FBS-containing medium for 24 hours to allow the cells to enter the stationary phase. The cultured cells were divided into a control group treated with neither scoparone nor tumor necrosis factor (TNF-α, and five test groups which were treated with scoparone in tumor necrosis factor (TNF-α)-containing media for 24 hours at scoparone concentrations of 0 μM, 10 μM, 20 μM, 50 μM and 100 μM, respectively. In addition, the cells were divided into five groups which were treated with 50 μg of scoparone for 15 min, 30 min, 45 min, 60 min and 90 min, respectively. From each of the groups, the total protein was isolated using RIPA buffer. Each of the isolated total protein was boiled in buffer for 5 minutes, and then cooled on ice. Then, each total protein was separated according to size by electrophoresis on sodium dodecyl sulfate polyacrylamide gel. Then, each total protein was transferred to a PVDF membrane which was then allowed to react with antibodies for VCAM and PAI-1 to examine the expression of the proteins. The membrane was further allowed to react with anti-actin antibody to examine whether the antibody uses a given amount of the proteins.

[5] = tested on: vascular smooth muscle cells; assay: Inhibition of proliferation of vascular smooth muscle cells (WST cell counting); type: cell-based, Sprague-Dawley white rats; conditions: scoparone 0, 5, 10, 20 or 50 μM, 48 hours, absorbance at 450 nm
Procedure: Vascular smooth muscle cells were isolated from the thoracic aorta of Sprague-Dawley white rats and cultured in a medium containing 20% fetal bovine serum.
The specificity of vascular smooth muscle cells was confirmed by staining the cells with α-actin monoclonal antibody (Sigma, St Louis, Mo., USA). In this experiment, vascular smooth muscle cells subcultured 5-6 times were used. The cultured vascular smooth muscle cells were plated in a 60-mm tissue culture dish at a confluence of about 80-90%, and then cultured in 0.5% FBS DMEM medium for 24 hours to allow the cells to enter the stationary phase.
The primarily cultured vascular smooth muscle cells were cultured in a 96-well culture dish, and when the cells reached a confluence of 40%, the medium was replaced with 0.5% FBS-containing medium, and the cells were cultured for 24 hours to allow the cells to enter the stationary phase.

[6] = tested on: ACC; assay: Phosphorylation of ACC in vascular smooth muscle cells (Western blot); type: cell-based, Sprague-Dawley white rats; conditions: 50 μg of scoparone for 1, 2, 4, 6 and 12 hr
Procedure: (§4) Cultured vascular smooth muscle cells were plated in a 60-mm tissue culture dish at a confluence of about 80-90%, and then cultured in 0.5% FBS-containing medium for 24 hours to allow the cells to enter the stationary phase. The cultured cells were divided into a control group not treated with scoparone, and five test groups which were treated with 50 μg of scoparone for 1 hr, 2 hr, 4 hr, 6 hr and 12 hr, respectively. From each of the groups, the total protein was isolated using RIPA buffer. Each of the isolated total proteins was boiled in buffer for 5 minutes, and then cooled on ice. Then, each total protein was separated according to size by electrophoresis on sodium dodecyl sulfate polyacrylamide. Then, each total protein was transferred to a PVDF membrane which was then allowed to react with monoclonal antibodies for pACC, pAMPK and AMPK to examine the expression and phosphorylation of the proteins.

[7] = tested on: Erk; assay: Phosphorylation of Erk in vascular smooth muscle cells (Western blot); type: cell-based, Sprague-Dawley white rats; conditions: 50 μg of scoparone for 15, 30, 45, 60 and 90 min
Procedure: (§5) In order to examine the signaling pathway of scoparone, the phosphorylation of JNK and Erk was examined.
(§6) Cultured vascular smooth muscle cells were plated in a 60-mm tissue culture dish at a confluence of 80-90%, and then cultured in 0.5% FBS-containing medium for 24 hours to allow the cells to enter the stationary phase. The cultured cells were divided into a control group not treated with scoparone, and five test groups which were treated with 50 μg of scoparone for 15 min, 30 min, 45 min, 60 min and 90 min, respectively. From each of the groups, the total protein was isolated using RIPA buffer. Each of the isolated total proteins was boiled in buffer for 5 minutes, and then cooled on ice. Then, each total protein was separated according to size by electrophoresis on sodium dodecyl sulfate polyacrylamide gel. Then, each total protein was transferred to a PVDF membrane which was then allowed to react with antibodies for pJNK, JNK, pErk and Erk to examine the expression and phosphorylation of the proteins.

[8] = tested on: human peripheral monocytes; conditions: cited from earlier work
[9] = tested on: NF-κB; assay: DNA-binding activity of NF-κB (electrophoretic mobility shift assay); type: cell-based, Sprague-Dawley white rats; conditions: 10 ng TNF-α; scoparone 0, 10, 20, 50 and 100 μM; 24 hours; EMSA
Procedure: as §1, §2

[10] = tested on: AMPK; assay: Phosphorylation of AMPK in vascular smooth muscle cells (Western blot); type: cell-based, Sprague-Dawley white rats; conditions: 50 μg of scoparone for 1, 2, 4, 6 and 12 hr
Procedure: as §4

[11] = tested on: cyclin D; assay: Expression of cyclin D in vascular smooth muscle cells (Western blot); type: cell-based, Sprague-Dawley white rats; conditions: 50 μg of scoparone for 2, 4, 6, 12 and 24 hr
Procedure: as §3

[12] = tested on: JNK; assay: Phosphorylation of JNK in vascular smooth muscle cells (Western blot); type: cell-based, Sprague-Dawley white rats; conditions: 50 μg of scoparone for 15, 30, 45, 60 and 90 min
Procedure: as §5, §6

[13] = tested on: ROS; assay: ROS production in vascular smooth muscle cells (DCF-DA fluorescence microscopy); type: cell-based, Sprague-Dawley white rats; conditions: TNF-α-containing media, scoparone 100 μM and 200 μM, 1 hour
Procedure: When vascular smooth muscle cells were grown to a confluence of about 90% in a 6-well cell culture dish, the cells were cultured in 0.5% FBS DMEM medium for 24 hours. The cultured cells were divided into a control group treated with neither tumor necrosis factor (TNF-α nor scoparone, and three test groups which were treated with scoparone in tumor necrosis factor (TNF-α)-containing media at scoparone concentrations of 0 μM, 100 μM and 200 μM, respectively. The cells of each group were incubated for 1 hour, and then 40 μmol/L of 2′,7′-dichlorofluorecin diacetate (DCF-DA; Invitrogen), a fluorescent probe sensitive to ROS, was added thereto, and the cells were incubated for 30 minutes. The production of ROS in the cells was analyzed using an AxioCam MRc5 Carl Zeiss fluorescence microscope (Thornwood, N.Y.) which was excited at a 488-nm wavelength and emitted at 515-nm wavelength.

[14] = tested on: p21; assay: Expression of p21 in vascular smooth muscle cells (Western blot); type: cell-based, Sprague-Dawley white rats
Procedure: as §3

[15] = high-cholesterol rabbit model; cited from earlier work
[16] = tested on: p27; assay: Expression of p27 in vascular smooth muscle cells (Western blot); type: cell-based, Sprague-Dawley white rats
Procedure: as §3

[17] = tested on: neointima formation in carotid artery; assay: Formation of neointima after balloon dilatation (carotid artery, H&E staining); type: in vivo, Sprague-Dawley white rats; conditions: high-fat diet containing 10 mg/kg or 100 mg/kg of scoparone; 2 weeks after balloon dilatation; vs negative control group
Procedure: In order to examine whether scoparone inhibits the formation of neointima after balloon dilatation, an experiment was performed using Sprague-Dawley white rats fed with scoparone-containing feed.
As test subjects, male Sprague-Dawley white rats weighing about 300 g were used. The rats were grouped into a normal control group, a negative control group fed only with a high-fat diet (20% fat and 0.05% cholesterol) and a test group fed with a high-fat diet containing 10 mg/kg or 100 mg/kg of scoparone, each group consisting of 4 animals, and were kept at 22° C. under a 12-hr light/12-hr dark cycle. The negative control group and the test group were fed with the above-described diets from 3 days before performing balloon dilatation and were fed with the diets during 2 weeks after balloon dilatation. After 2 weeks, the carotid artery was isolated from the rats and stained with H&E (hematoxylin & eosin) in order to observe the formation of neointima. FIG. 2 is a micrograph (×100) showing the cross-section of the carotid artery of the rats 2 weeks after balloon dilatation.

[18] = 50 μg of scoparone for 2, 4, 6, 12 and 24 hr

Compound: c1cc(-c2cnn3cc(-c4ccc(OCCN5CCCCC5)cc4)cnc23)ccn1 [CompC]
- proliferation of the vascular smooth muscle cells [1]: restored again

- DNA binding activity of AP-1 [2]: concentration-dependently decreased
- DNA binding activity of NF-κB [9]: concentration-dependently decreased
Compound: COc1cc2ccc(=O)oc2cc1OC [scoparone, 6,7-dimethoxycoumarin]
- time of highest expression level of p53 after treatment ([3]; 50 μg of scoparone): 2 to 4 h
- expression of p53 [3, 18]: time-dependently increased
- expression of VCAM-1 [4]: dose-dependently decreased
- proliferation of the vascular smooth muscle cells ([5]; with 10 ng/ml TNF-α): decreased in a dose-dependent manner
- proliferation of the vascular smooth muscle cells ([5]; with 20 ng/ml PDGF): decreased in a dose-dependent manner
- phosphorylation of ACC [6]: time-dependently increased
- time of highest phosphorylation of Erk after treatment [7]: 45 min
- growth of human peripheral monocytes [8]: inhibits
- phosphorylation of AMPK [10]: time-dependently increased
- expression level of cyclin D [11]: decreased
- phosphorylation of JNK [12]: gradually increased with the passage of time
- expression of ROS [13]: decreased
- time of highest expression level of p21 after treatment ([14]; 50 μg of scoparone): 24 h
- expression of p21 [14, 18]: time-dependently increased
- cholesterol levels [15]: lowered
- triglyceride levels [15]: lowered
- time of highest expression level of p27 after treatment ([16]; 50 μg of scoparone): 24 h
- expression of p27 [16, 18]: time-dependently increased
- formation of neointima [17]: decreased compared to that in the negative control group
